# Patent publication US10766888B1, “HMOX1 inducers” (Mitobridge Inc., priority 2019, dated 2020)
# Experiments:
# [1] = system: Human Heme Oxygenase-1 (HMOX-1); assay: ELISA assay to measure human heme oxygenase-1 (HMOX-1) in HepG2 lysate; format: cell-based; settings: human HMOX1 protein level in HepG2 lysate; * = average of 2 or more EC50 determinations; NA = Not Active; read-out: EC50
# Summary of the method: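 Treated HepG2 cells were lysed in PBS with 0.5% Triton X100, 1 mM EDTA and protease inhibitors, and lysates were diluted 1:20. HO-1 was measured by sandwich ELISA (biotinylated detection antibody, streptavidin-HRP, chemiluminescence) at room temperature against a standard curve from 20 ng/ml. EC50 and fold change were expressed relative to DMSO control.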
# Kinetic solubility = format: physicochemical; settings: Dulbecco's phosphate buffer saline (DPBS), aqueous buffer, kinetic from dmso stock, DPBS pH 7.4, 25° C., 200 μM test compound
# Description: Example 144. Kinetic Solubility
# 10 μL of 10 mM DMSO stock solution were aliquotted to 490 μL of DMSO solution and separately 490 μL of Dulbecco's phosphate buffer saline, DPBS, pH 7.4 solution in 1.2 mL 96-well plates in duplicate. Final concentration was 200 μM of the test compound. Samples were incubated at 25° C. with shaking at 200 rpm for 16 h. Samples were centrifuged at 3500 rpm for 20 min at 25° C., and supernatant was submitted for HPLC analysis.
# Kinetic solubility was measured using the following equation: […]
Compound,EC50 [1] [µM],solubility at 16 h (Kinetic solubility) [µM]
"COCCONC(=O)c1ccc2c(c1)nc(Nc1nc3ccccc3o1)n2C [Example 119, 2-(benzo[d]oxazol-2-ylamino)-N-(2-methoxyethoxy)-1-methyl-1H-benzo[d]imidazole-5-carboxamide]",0.6,0.5
"CC1CCc2nc(Nc3nc4cc(C(=O)NOCCO)ccc4n3C)sc2C1 (stereo not drawn) [Example 131, N-(2-hydroxyethoxy)-1-methyl-2-((6-methyl-4,5,6,7-tetrahydrobenzo[d]thiazol-2-yl)amino)-1H-benzo[d]imidazole-5-carboxamide]",1.4,6.7
"Cn1c(Nc2nc3ccc(OCCO)cc3o2)nc2cc(C(=O)NOCCO)ccc21 [Example 129, N-(2-hydroxyethoxy)-2-((6-(2-hydroxyethoxy)benzo[d]oxazol-2-yl)amino)-1-methyl-1H-benzo[d]imidazole-5-carboxamide]",3.4,14.1
"Cn1c(Nc2nc3ccc(C(C)(C)O)cc3o2)nc2cc(C(=O)NCCO)ccc21 [Example 133, N-(2-hydroxyethyl)-2-((6-(2-hydroxypropan-2-yl)benzo[d]oxazol-2-yl)amino)-1-methyl-1H-benzo[d]imidazole-5-carboxamide]",5.3,9.2
"Cn1c(Nc2nc3cc(F)c(C(F)(F)F)cc3o2)nc2cc(C(=O)NCCO)ccc21 [Example 108, 2-((5-fluoro-6-(trifluoromethyl)benzo[d]oxazol-2-yl)amino)-N-(2-hydroxyethyl)-1-methyl-1H-benzo[d]imidazole-5-carboxamide]",1.5,0.3
"COCCONC(=O)c1ccc2c(c1)nc(Nc1nc3ccc(C(C)=O)cc3o1)n2C [Example 132, 2-((6-acetylbenzo[d]oxazol-2-yl)amino)-N-(2-methoxyethoxy)-1-methyl-1H-benzo[d]imidazole-5-carboxamide]",1.5,3.1
"Cn1c(Nc2nc3ccc(Cl)cc3o2)nc2cc(C(=O)NCCO)ccc21 [Example 97, 2-((6-chlorobenzo[d]oxazol-2-yl)amino)-N-(2-hydroxyethyl)-1-methyl-1H-benzo[d]imidazole-5-carboxamide]",1.4,< 5
"COCCNC(=O)c1ccc2c(c1)nc(Nc1nc3ccc(C(F)(F)F)cc3o1)n2C [Example 32, N-(2-methoxyethyl)-1-methyl-2-((6-(trifluoromethyl)benzo[d]oxazol-2-yl)amino)-1H-benzo[d]imidazole-5-carboxamide]",0.5,1.4
"O=C(O)c1ccc2c(c1)nc(Nc1nc3ccc(OC(F)(F)F)cc3o1)n2C1CCOCC1 [Example 79, 1-(tetrahydro-2H-pyran-4-yl)-2-((6-(trifluoromethoxy)benzo[d]oxazol-2-yl)amino)-1H-benzo[d]imidazole-5-carboxylic acid]",4,12.4
"Cn1c(Nc2nc3cccc(C(F)(F)F)c3o2)nc2cc(C(=O)NCCOCCO)ccc21 [Example 117, N-(2-(2-hydroxyethoxy)ethyl)-1-methyl-2-((7-(trifluoromethyl)benzo[d]oxazol-2-yl)amino)-1H-benzo[d]imidazole-5-carboxamide]",1.8,1.2
"CC(O)COCCNC(=O)c1ccc2c(c1)nc(Nc1nc3ccc(C(F)(F)F)cc3o1)n2C (stereo not drawn) [Example 38, N-(2-(2-hydroxypropoxy)ethyl)-1-methyl-2-((6-(trifluoromethyl)benzo[d]oxazol-2-yl)amino)-1H-benzo[d]imidazole-5-carboxamide]",1.3,< 2
"Cn1c(Nc2nc3ccc(OCC(F)(F)F)cc3o2)nc2cc(C(=O)NCCO)ccc21 [Example 100, N-(2-hydroxyethyl)-1-methyl-2-((6-(2,2,2-trifluoroethoxy)benzo[d]oxazol-2-yl)amino)-1H-benzo[d]imidazole-5-carboxamide]",1.2,5.3
"Cn1c(Nc2nc3ccc(Br)cc3o2)nc2cc(C(=O)O)ccc21 [Example 91, 2-((6-bromobenzo[d]oxazol-2-yl)amino)-1-methyl-1H-benzo[d]imidazole-5-carboxylic acid]",2.5,2.6
"Cn1c(Nc2nc3ccc(OC(F)(F)F)cc3o2)nc2cc(C(=O)NOCCO)ccc21 [Example 126, N-(2-hydroxyethoxy)-1-methyl-2-((6-(trifluoromethoxy)benzo[d]oxazol-2-yl)amino)-1H-benzo[d]imidazole-5-carboxamide]",0.5,2.1
"Cn1c(Nc2nc3ccc(OC(F)(F)F)cc3o2)nc2cc(C(=O)NCC3(O)COC3)ccc21 [Example 52, N-((3-hydroxyoxetan-3-yl)methyl)-1-methyl-2-((6-(trifluoromethoxy)benzo[d]oxazol-2-yl)amino)-1H-benzo[d]imidazole-5-carboxamide]",1,< 2
"Cn1c(Nc2nc3ccc(C(F)(F)F)cc3o2)nc2cc(C(=O)NCCOCC(=O)O)ccc21 [Example 41, 2-(2-(1-methyl-2-((6-(trifluoromethyl)benzo[d]oxazol-2-yl)amino)-1H-benzo[d]imidazole-5-carboxamido)ethoxy)acetic acid]",4.8,13.8
"Cn1c(Nc2nc3ccc(C(F)(F)F)cc3o2)nc2cc(C(=O)NCCN3CCCC3)ccc21 [Example 36, 1-methyl-N-(2-(pyrrolidin-1-yl)ethyl)-2-((6-(trifluoromethyl)benzo[d]oxazol-2-yl)amino)-1H-benzo[d]imidazole-5-carboxamide]",1.3,2.8
"Cn1c(Nc2nc3ccc(OC(F)(F)F)cc3o2)nc2cc(C(=O)Nc3cn[nH]c3)ccc21 [Example 46, 1-methyl-N-(1H-pyrazol-4-yl)-2-((6-(trifluoromethoxy)benzo[d]oxazol-2-yl)amino)-1H-benzo[d]imidazole-5-carboxamide]",2.2,< 5
"Cn1c(Nc2nc3ccc(OCCO)cc3o2)nc2cc(C(=O)NCCO)ccc21 [Example 103, 2-((6-(2-hydroxyethoxy)benzo[d]oxazol-2-yl)amino)-N-(2-hydroxyethyl)-1-methyl-1H-benzo[d]imidazole-5-carboxamide]",3.1,> 20
"COc1ccc2nc(Nc3nc4cc(C(=O)NCCO)ccc4n3C)oc2c1 [Example 92, N-(2-hydroxyethyl)-2-((6-methoxybenzo[d]oxazol-2-yl)amino)-1-methyl-1H-benzo[d]imidazole-5-carboxamide]",1.4,3.5
"COCCNC(=O)c1ccc2c(c1)nc(Nc1nc3ccc(OC(F)F)cc3o1)n2C [Example 63, 2-((6-(difluoromethoxy)benzo[d]oxazol-2-yl)amino)-N-(2-methoxyethyl)-1-methyl-1H-benzo[d]imidazole-5-carboxamide]",1.3,0.8
"Cn1c(Nc2nc3cccnc3o2)nc2cc(C(=O)NCCO)ccc21 [Example 110, N-(2-hydroxyethyl)-1-methyl-2-(oxazolo[5,4-b]pyridin-2-ylamino)-1H-benzo[d]imidazole-5-carboxamide]",7.6,18.9
"COCCNC(=O)c1ccc2c(c1)nc(Nc1nc3ccc(OC(F)(F)F)cc3o1)n2C [Example 45, N-(2-methoxyethyl)-1-methyl-2-((6-(trifluoromethoxy)benzo[d]oxazol-2-yl)amino)-1H-benzo[d]imidazole-5-carboxamide]",0.64,0.2
"CC(C)c1ccc2nc(Nc3nc4cc(C(=O)NCCO)ccc4n3C)oc2c1 [Example 61, N-(2-hydroxyethyl)-2-((6-isopropylbenzo[d]oxazol-2-yl)amino)-1-methyl-1H-benzo[d]imidazole-5-carboxamide]",1.5,1.2
"Cn1c(Nc2nc3ccc(C(F)(F)F)cc3o2)nc2cc(C(=O)NCC(O)CO)ccc21 (stereo not drawn) [Example 39, N-(2,3-dihydroxypropyl)-1-methyl-2-((6-(trifluoromethyl)benzo[d]oxazol-2-yl)amino)-1H-benzo[d]imidazole-5-carboxamide]",0.95,2.1
"Cn1c(Nc2nc3ccc(C(F)(F)F)cc3o2)nc2cc(C(=O)NOCCO)ccc21 [Example 125, N-(2-hydroxyethoxy)-1-methyl-2-((6-(trifluoromethyl)benzo[d]oxazol-2-yl)amino)-1H-benzo[d]imidazole-5-carboxamide]",0.3,3.5
"Cn1c(Nc2nc3ccc(OC(F)F)cc3o2)nc2cc(C(=O)NCCO)ccc21 [Example 64, 2-((6-(difluoromethoxy)benzo[d]oxazol-2-yl)amino)-N-(2-hydroxyethyl)-1-methyl-1H-benzo[d]imidazole-5-carboxamide]",1.8,2
